Laboratory results published in ChEMBL document CHEMBL5331073, “Discovery of novel 7,7-dimethyl-6,7-dihydro-5H-pyrrolo[3,4-d]pyrimidines as ATR inhibitors based on structure-based drug design” (Eur J Med Chem, 2023).

Assays:
HCT-116 = assay: Antiproliferative activity against ATM-proficient human HCT-116 cells assessed as reduction in cell viability incubated for 3 days by MTT assay; assay type: functional, cell-based; conditions: HCT-116, 72 h
A549 = assay: Antiproliferative activity against ATM-proficient human A549 cells assessed as reduction in cell viability incubated for 3 days by MTT assay; assay type: functional, cell-based; conditions: A549, 72 h
HT-29 [1] = assay: Antiproliferative activity against ATM-proficient human HT-29 cells assessed as reduction in cell proliferation incubated for 3 days by MTT assay; assay type: functional, cell-based; conditions: HT-29, 72 h
[2] = Oral bioavailability in Sprague-Dawley rat at 5 mg/kg and measured upto 24 hrs by LC-MS analysis; assay type: ADME, organism-based; conditions: in vivo
[3] = Half life in Sprague-Dawley rat at 1 mg/kg, iv and measured upto 24 hrs by LC-MS analysis; assay type: ADME, organism-based; conditions: in vivo
[4] = AUCt in Sprague-Dawley rat at 1 mg/kg, iv and measured upto 24 hrs by LC-MS analysis; assay type: ADME, organism-based; set-up: dose 1 mg/kg, time < 24 hrs, route iv; conditions: in vivo
[5] = target: T1, Serine/threonine-protein kinase ATR (Homo sapiens, UniProt Q13535); assay: Inhibition of ATR (unknown origin) using peptide as substrate preincubated for 10 mins followed by substrate addition by microplate reader analysis
Target sequence in this assay (Q13535 whole entry): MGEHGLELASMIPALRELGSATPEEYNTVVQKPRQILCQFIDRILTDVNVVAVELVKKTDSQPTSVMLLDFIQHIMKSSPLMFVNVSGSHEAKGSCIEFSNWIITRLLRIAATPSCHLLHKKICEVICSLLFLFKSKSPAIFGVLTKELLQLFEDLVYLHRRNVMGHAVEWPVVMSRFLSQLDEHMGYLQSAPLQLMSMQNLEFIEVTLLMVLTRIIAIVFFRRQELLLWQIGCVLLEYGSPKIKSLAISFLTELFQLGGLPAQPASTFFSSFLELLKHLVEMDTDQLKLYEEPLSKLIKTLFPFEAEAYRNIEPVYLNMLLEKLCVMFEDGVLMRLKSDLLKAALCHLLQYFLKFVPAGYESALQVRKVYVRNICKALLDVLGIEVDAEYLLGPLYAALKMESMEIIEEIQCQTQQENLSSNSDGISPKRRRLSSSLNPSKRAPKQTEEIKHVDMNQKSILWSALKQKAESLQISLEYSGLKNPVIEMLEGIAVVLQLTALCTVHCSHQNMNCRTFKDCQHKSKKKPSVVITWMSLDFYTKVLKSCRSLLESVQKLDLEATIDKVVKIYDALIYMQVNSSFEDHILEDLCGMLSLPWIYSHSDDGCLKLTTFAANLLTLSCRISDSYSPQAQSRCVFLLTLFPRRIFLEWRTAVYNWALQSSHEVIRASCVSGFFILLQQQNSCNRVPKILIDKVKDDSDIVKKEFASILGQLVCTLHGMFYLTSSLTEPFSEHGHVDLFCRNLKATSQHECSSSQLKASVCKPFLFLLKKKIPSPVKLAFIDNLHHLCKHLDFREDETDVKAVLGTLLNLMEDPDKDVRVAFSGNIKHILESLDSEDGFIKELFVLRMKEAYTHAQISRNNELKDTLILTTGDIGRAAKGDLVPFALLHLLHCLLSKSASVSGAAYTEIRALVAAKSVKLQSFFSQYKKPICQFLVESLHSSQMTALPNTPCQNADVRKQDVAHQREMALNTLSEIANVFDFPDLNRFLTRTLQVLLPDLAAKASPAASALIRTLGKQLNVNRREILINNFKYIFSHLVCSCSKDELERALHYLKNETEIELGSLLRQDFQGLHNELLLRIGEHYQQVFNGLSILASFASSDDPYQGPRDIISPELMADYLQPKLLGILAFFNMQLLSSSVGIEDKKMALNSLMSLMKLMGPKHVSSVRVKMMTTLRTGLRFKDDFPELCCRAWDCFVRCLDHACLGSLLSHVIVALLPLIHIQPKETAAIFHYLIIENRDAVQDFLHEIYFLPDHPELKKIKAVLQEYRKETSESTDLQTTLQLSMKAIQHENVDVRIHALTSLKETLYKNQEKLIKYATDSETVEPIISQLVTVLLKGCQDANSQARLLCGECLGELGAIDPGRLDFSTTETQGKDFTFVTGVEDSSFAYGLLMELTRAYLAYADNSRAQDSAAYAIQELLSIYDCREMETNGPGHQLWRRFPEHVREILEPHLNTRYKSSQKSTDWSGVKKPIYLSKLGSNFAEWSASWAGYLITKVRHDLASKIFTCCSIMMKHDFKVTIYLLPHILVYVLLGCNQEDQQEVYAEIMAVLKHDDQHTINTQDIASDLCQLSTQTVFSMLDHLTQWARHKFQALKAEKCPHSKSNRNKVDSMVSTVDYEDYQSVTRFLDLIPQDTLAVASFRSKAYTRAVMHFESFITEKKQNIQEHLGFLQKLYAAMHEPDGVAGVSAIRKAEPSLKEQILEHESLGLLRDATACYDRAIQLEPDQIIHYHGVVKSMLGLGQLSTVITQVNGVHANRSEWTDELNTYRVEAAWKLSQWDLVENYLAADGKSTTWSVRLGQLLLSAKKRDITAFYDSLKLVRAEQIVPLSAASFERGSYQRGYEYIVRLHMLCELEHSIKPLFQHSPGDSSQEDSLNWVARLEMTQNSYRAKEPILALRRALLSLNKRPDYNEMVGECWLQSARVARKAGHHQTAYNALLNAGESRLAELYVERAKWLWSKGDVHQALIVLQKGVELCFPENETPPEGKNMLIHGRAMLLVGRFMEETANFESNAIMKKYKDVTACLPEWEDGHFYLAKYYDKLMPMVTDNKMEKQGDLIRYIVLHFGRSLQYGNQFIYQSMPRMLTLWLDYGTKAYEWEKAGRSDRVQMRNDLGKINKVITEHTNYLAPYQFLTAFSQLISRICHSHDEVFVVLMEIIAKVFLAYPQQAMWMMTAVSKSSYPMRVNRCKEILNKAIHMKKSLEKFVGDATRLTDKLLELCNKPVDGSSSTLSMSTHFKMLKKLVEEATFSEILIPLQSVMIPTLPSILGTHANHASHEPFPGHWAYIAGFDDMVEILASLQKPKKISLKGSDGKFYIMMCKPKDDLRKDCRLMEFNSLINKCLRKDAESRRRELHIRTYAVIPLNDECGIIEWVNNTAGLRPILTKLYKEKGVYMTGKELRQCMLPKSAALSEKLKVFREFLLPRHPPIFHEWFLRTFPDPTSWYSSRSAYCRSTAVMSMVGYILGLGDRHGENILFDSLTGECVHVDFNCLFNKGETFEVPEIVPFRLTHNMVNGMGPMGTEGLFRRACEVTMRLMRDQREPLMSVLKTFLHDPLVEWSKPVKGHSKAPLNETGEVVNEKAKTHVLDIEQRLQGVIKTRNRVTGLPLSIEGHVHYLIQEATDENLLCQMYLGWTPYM

in vitro [6] = conditions: human, liver microsomes
in vitro [7] = conditions: human, liver microsomes; remark: listed apart in the source
LoVo [8] = assay: Antiproliferative activity against ATM-deficient human LoVo cells assessed as reduction in cell proliferation at 0.1 to 25 uM incubated for 3 days by MTT assay; assay type: functional, cell-based; conditions: dose 0.1-25 µM, time 3.0 day
[9] = AUCt in Sprague-Dawley rat at 5 mg/kg, po and measured upto 24 hrs by LC-MS analysis; assay type: ADME, organism-based; set-up: time < 24 hrs, dose 5 mg/kg, route po; conditions: in vivo
[10] = Clearance in Sprague-Dawley rat at 1 mg/kg, iv and measured upto 24 hrs by LC-MS analysis; assay type: ADME, organism-based; conditions: in vivo
in vitro [11] = conditions: rat, liver microsomes
in vitro [12] = conditions: rat, liver microsomes; remark: listed apart in the source
[13] = MRT(t) in Sprague-Dawley rat at 5 mg/kg, po and measured upto 24 hrs by LC-MS analysis; assay type: ADME, organism-based; conditions: in vivo
[14] = AUC(0 to infinity) in Sprague-Dawley rat at 1 mg/kg, iv and measured upto 24 hrs by LC-MS analysis; assay type: ADME, organism-based; set-up: time < 24 hrs, dose 1 mg/kg, route iv; conditions: in vivo
[15] = MRT (0 to infinity) in Sprague-Dawley rat at 5 mg/kg, po and measured upto 24 hrs by LC-MS analysis; assay type: ADME, organism-based; conditions: in vivo
LoVo [16] = assay: Antiproliferative activity against ATM-deficient human LoVo cells assessed as reduction in cell proliferation incubated for 3 days by MTT assay; assay type: functional, cell-based; conditions: 72 h
HT-29 [17] = assay: Antiproliferative activity against ATM-proficient human HT-29 cells assessed as reduction in cell proliferation at 0.5 to 22 uM incubated for 3 days by MTT assay; assay type: functional, cell-based; conditions: dose 0.5-22 µM, time 3.0 day
in vitro [18] = conditions: rat, liver microsomes; remark: listed apart in the source
[19] = Tmax in Sprague-Dawley rat at 5 mg/kg, po and measured upto 24 hrs by LC-MS analysis; assay type: ADME, organism-based; conditions: in vivo
[20] = MRT (0 to infinity) in Sprague-Dawley rat at 1 mg/kg, iv and measured upto 24 hrs by LC-MS analysis; assay type: ADME, organism-based; conditions: in vivo
[21] = AUC (0 to infinity) in Sprague-Dawley rat at 5 mg/kg, po and measured upto 24 hrs by LC-MS analysis; assay type: ADME, organism-based; set-up: time < 24 hrs, dose 5 mg/kg, route po; conditions: in vivo
[22] = Volume of distribution at steady state in Sprague-Dawley rat at 1 mg/kg, iv and measured upto 24 hrs by LC-MS analysis; assay type: ADME, organism-based; conditions: in vivo, read-out: Vdss
[23] = MRT(t) in Sprague-Dawley rat at 1 mg/kg, iv and measured upto 24 hrs by LC-MS analysis; assay type: ADME, organism-based; conditions: in vivo
[24] = Half life in Sprague-Dawley rat at 5 mg/kg, po and measured upto 24 hrs by LC-MS analysis; assay type: ADME, organism-based; conditions: in vivo
[25] = Cmax in Sprague-Dawley rat at 5 mg/kg, po and measured upto 24 hrs by LC-MS analysis; assay type: ADME, organism-based; set-up: time < 24 hrs, dose 5 mg/kg, route po; conditions: in vivo
in vitro [26] = conditions: human, liver microsomes; remark: listed apart in the source
[27] = target: Serine/threonine-protein kinase mTOR (Homo sapiens, UniProt P42345); assay: Inhibition of mTOR (unknown origin) using peptide as substrate preincubated for 10 mins followed by substrate addition by microplate reader analysis
[28] = target: T1, Serine/threonine-protein kinase ATR; assay: Inhibition of ATR (unknown origin) using peptide as substrate at 0.1 uM preincubated for 10 mins followed by substrate addition by microplate reader analysis
Target sequence in this assay (Q13535 whole entry, looked up): as the sequence (Q13535 whole entry) above

MDA-MB-231 = assay: Antiproliferative activity against human MDA-MB-231 cells assessed as reduction in cell viability incubated for 3 days by MTT assay; assay type: functional, cell-based; conditions: MDA-MB-231, 72 h
MCF7 = assay: Antiproliferative activity against human MCF7 cells assessed as reduction in cell viability incubated for 3 days by MTT assay; assay type: functional, cell-based; conditions: MCF7, 72 h

IC50 (HT-29 [1]) [nM]	IC50 [5] [nM]	microsomal CLint at 1 h, 1 µM (in vitro [6]) [µL/min/mg]	half-life at 1 h, 1 µM (in vitro [7]) [h]	microsomal CLint at 1 h, 1 µM (in vitro [11]) [µL/min/mg]	half-life at 1 h, 1 µM (in vitro [12]) [h]	IC50 (LoVo [16]) [nM]	CLint scaled at 1 h, 1 µM (in vitro [18]) [mL/min/kg]	CLint scaled at 1 h, 1 µM (in vitro [26]) [mL/min/kg]	inhibition [28] [%]	SMILES	other results
449	4	53.9	0.428	7.06	3.28	92	12.7	50.9		C[C@@H]1COCCN1c1nc(-c2cccc3[nH]ccc23)nc2c1CN(C(=O)c1ccc(S(C)(=O)=O)cc1)C2(C)C	bioavailability [2]: 6.1%; half-life [3]: 5.49 h; AUC(0-t) at 24 h [4]: 603 ng·h/mL; Activity (LoVo [8]): Dose-Dependent Effect; AUC(0-t) at 24 h [9]: 185 ng·h/mL; clearance [10]: 26 mL/min/kg; MRT last at 24 h [13]: 5.56 h; AUC(0-inf) [14]: 646 ng·h/mL; MRT inf [15]: 7.1 h; Activity (HT-29 [17]): Dose-Dependent Effect; Tmax [19]: 2 h; MRT inf [20]: 6.99 h; AUC(0-inf) [21]: 203 ng·h/mL; Vd [22]: 10.8 L/kg; MRT last at 24 h [23]: 5.21 h; half-life [24]: 4.38 h; Cmax [25]: 24.1 ng/mL
387	3	147	0.158	76.6	0.302	128	138	139		COc1ccc(C(=O)N2Cc3c(N4CCOC[C@H]4C)nc(-c4cccc5[nH]ccc45)nc3C2(C)C)cc1	bioavailability [2]: 6.3%; half-life [3]: 3.02 h; AUC(0-t) at 24 h [4]: 1440 ng·h/mL; AUC(0-t) at 24 h [9]: 452 ng·h/mL; clearance [10]: 11.3 mL/min/kg; MRT last at 24 h [13]: 7.08 h; AUC(0-inf) [14]: 1470 ng·h/mL; MRT inf [15]: 11.3 h; Tmax [19]: 1 h; MRT inf [20]: 3.3 h; AUC(0-inf) [21]: 729 ng·h/mL; Vd [22]: 2.23 L/kg; MRT last at 24 h [23]: 2.99 h; half-life [24]: 10 h; Cmax [25]: 83.1 ng/mL
431	4	339	0.0685	121	0.192	112	218	320		CC(=O)c1cccc(C(=O)N2Cc3c(N4CCOC[C@H]4C)nc(-c4cccc5[nH]ccc45)nc3C2(C)C)c1	Activity (LoVo [8]): Dose-Dependent Effect; Activity (HT-29 [17]): Dose-Dependent Effect
357	4	51.6	0.447	20.1	1.17	151	36.2	48.8		COc1cccc(C(=O)N2Cc3c(N4CCOC[C@H]4C)nc(-c4cccc5[nH]ccc45)nc3C2(C)C)c1	bioavailability [2]: 8.1%; half-life [3]: 1.28 h; AUC(0-t) at 24 h [4]: 835 ng·h/mL; AUC(0-t) at 24 h [9]: 323 ng·h/mL; clearance [10]: 20.1 mL/min/kg; MRT last at 24 h [13]: 2.7 h; AUC(0-inf) [14]: 840 ng·h/mL; MRT inf [15]: 3.08 h; Tmax [19]: 0.667 h; MRT inf [20]: 1.08 h; AUC(0-inf) [21]: 342 ng·h/mL; Vd [22]: 1.3 L/kg; MRT last at 24 h [23]: 1.02 h; half-life [24]: 1.87 h; Cmax [25]: 86.2 ng/mL
307	6	281	0.0823	28.5	0.812	96	51.4	265		CC(=O)c1ccc(C(=O)N2Cc3c(N4CCOC[C@H]4C)nc(-c4cccc5[nH]ccc45)nc3C2(C)C)cc1	Activity (LoVo [8]): Dose-Dependent Effect; Activity (HT-29 [17]): Dose-Dependent Effect

Further lines, the compound ahead of its results:

SMILES	IC50 (HT-29 [1]) [nM]	IC50 [5] [nM]	microsomal CLint at 1 h, 1 µM (in vitro [6]) [µL/min/mg]	half-life at 1 h, 1 µM (in vitro [7]) [h]	microsomal CLint at 1 h, 1 µM (in vitro [11]) [µL/min/mg]	half-life at 1 h, 1 µM (in vitro [12]) [h]	IC50 (LoVo [16]) [nM]	CLint scaled at 1 h, 1 µM (in vitro [18]) [mL/min/kg]	CLint scaled at 1 h, 1 µM (in vitro [26]) [mL/min/kg]	inhibition [28] [%]	other results
CC(C)n1c(=O)n(C)c2cnc3cc(F)c(-c4ccc(OCCCN5CCCCC5)nc4)cc3c21 [AZD-1390]	> 30000										IC50 (HCT-116): 10500 nM; IC50 (A549): 43000 nM
CC(=O)N1CCc2c(N3CCOC[C@H]3C)nc(-c3cccc4[nH]ccc34)nc2C1(C)C	4610	13	123	0.188	61.4	0.378	1260	110	116	89.9	IC50 [27]: 13 nM
C[C@@H]1COCCN1c1nc(-c2cccc3[nH]ccc23)nc2c1CCN(S(C)(=O)=O)C2(C)C		18								88.7	IC50 [27]: 157 nM
C[C@@H]1COCCN1c1nc(-c2cccc3[nH]ccc23)nc2c1CCNC2(C)C										70.7	
O=C(c1cc(Cc2n[nH]c(=O)c3ccccc23)ccc1F)N1CCN(C(=O)C2CC2)CC1 [OLAPARIB]											IC50 (MDA-MB-231): 73300 nM; IC50 (MCF7): 18600 nM
C[C@@H]1COCCN1c1nc(-c2cccc3[nH]ccc23)nc2c1CCN(Cc1ccccc1)C2(C)C										14.6	
